# Assay results published in US20200181132A1, “QUINOXALINE AND PYRIDOPYRAZINE DERIVATIVES AS PI3K-BETA INHIBITORS” (JANSSEN PHARMACEUTICA NV, priority 2017, published 2020).
# Columns and labels:
# PIK3Cβ_h = target: T1, PIK3Cβ_h (Homo sapiens, UniProt P42338); test: Enzyme binding assay (KINOMEscan), PIK3Cβ; conditions: DiscoveRx
# T1 construct: purchased DiscoveRx Corporation
# Method: (§1) Enzyme Binding Assays (KINOMEscan®)
# (§2) Kinase enzyme binding affinities of compounds disclosed herein were determined using the KINOMEscan technology performed by DiscoveRx Corporation, San Diego, Calif., USA (www.kinomescan.com). Table A reports the obtained Kd values (nM), with the Kd being the inhibitor binding constant: […]
# [1] = test system: phosphorylation of Akt at Ser473 in PC-3 cells; test: Cellular assay: phospho-Akt (Ser473) MSD ELISA in PC-3 cells; assay type: cell-based; conditions: Homo sapiens, PC-3, 1 h, 60 min incubation with compound, read-out: IC50 pAkt_S473
# Method: (§3) Cellular activity of PI3Kβ inhibitors was determined by quantifying the phosphorylation of Akt in PC-3 cells. Akt phosphorylated at Ser473 and Thr308 were measured using an enzyme-linked immunosorbent assay (ELISA; Meso Scale Discovery (MSD), Gaithersburg, Md.) and specific primary antibodies from MSD.
# (§4) On day 1, PC3 cells (ATCC # […]) were seeded into PerkinElmer MW96 plates at 25.000 cells per well, in 75 μl complete culture medium (DMEM high glucose, AQmedia™, D0819, Sigma-Aldrich) containing 10% heat inactivated FCS and incubated at 37° C., 5% CO2 during 24 hours. On day 2, compound or DMSO (0.3%) was added and cells were further incubated for 60 min at 37° C., 5% CO2 in a total volume of 100 μl of medium.
# (§5) The phosphoprotein assay was executed according to vendor instructions in the Phospho-Akt (Ser473) Assay Whole Cell Lysate Kit (MSD # K15100D-3) and the Phospho-Akt (Thr308) Assay Whole Cell Lysate Kit (MSD # K151DYD-3) using the lysis, blocking and wash buffer provided.
# (§6) Briefly, at the end of the cell treatment period, media were removed by aspiration and adherent cells were lysed in 50 μl ice-cold lysis buffer. MSD plates are supplied pre-coated with capture antibodies for Phospho-Akt (Ser473 and Thr308). After blocking, lysates from tissue culture plates were added and plates were washed. Then, a solution containing the detection antibody (anti-total Akt conjugated with an electrochemiluminescent compound-MSD Sulfo-tag label) was added. The signals were detected using an MSD SECTOR Imager 6000 and are proportional to the phospho-Akt titres.
# (§7) Data were processed. The percentage of inhibition was plotted against the log concentration of test compounds, and the sigmoidal log concentration-effect curve of best fit was calculated by nonlinear regression analysis. From these concentration-response curves, the IC50 values were calculated. Five concentrations were used for curve fitting.
# PIK3Cγ_h = target: T2, PIK3Cγ_h (Homo sapiens, UniProt P48736); test: Enzyme binding assay (KINOMEscan), PIK3Cγ; conditions: DiscoveRx
# T2 construct: purchased DiscoveRx Corporation
# Method: as §1, §2
# [2] = test system: phosphorylation of Akt at Thr308 in PC-3 cells; test: Cellular assay: phospho-Akt (Thr308) MSD ELISA in PC-3 cells; assay type: cell-based; conditions: Homo sapiens, PC-3, 1 h, 60 min incubation with compound, read-out: IC50 pAkt_Thr308
# Method: as §3, §4, §5, §6, §7
# PIK3Cδ_h = target: T3, PIK3Cδ_h (Homo sapiens, UniProt O00329); test: Enzyme binding assay (KINOMEscan), PIK3Cδ; conditions: DiscoveRx
# T3 construct: purchased DiscoveRx Corporation
# T3 sequence (O00329 1-1044): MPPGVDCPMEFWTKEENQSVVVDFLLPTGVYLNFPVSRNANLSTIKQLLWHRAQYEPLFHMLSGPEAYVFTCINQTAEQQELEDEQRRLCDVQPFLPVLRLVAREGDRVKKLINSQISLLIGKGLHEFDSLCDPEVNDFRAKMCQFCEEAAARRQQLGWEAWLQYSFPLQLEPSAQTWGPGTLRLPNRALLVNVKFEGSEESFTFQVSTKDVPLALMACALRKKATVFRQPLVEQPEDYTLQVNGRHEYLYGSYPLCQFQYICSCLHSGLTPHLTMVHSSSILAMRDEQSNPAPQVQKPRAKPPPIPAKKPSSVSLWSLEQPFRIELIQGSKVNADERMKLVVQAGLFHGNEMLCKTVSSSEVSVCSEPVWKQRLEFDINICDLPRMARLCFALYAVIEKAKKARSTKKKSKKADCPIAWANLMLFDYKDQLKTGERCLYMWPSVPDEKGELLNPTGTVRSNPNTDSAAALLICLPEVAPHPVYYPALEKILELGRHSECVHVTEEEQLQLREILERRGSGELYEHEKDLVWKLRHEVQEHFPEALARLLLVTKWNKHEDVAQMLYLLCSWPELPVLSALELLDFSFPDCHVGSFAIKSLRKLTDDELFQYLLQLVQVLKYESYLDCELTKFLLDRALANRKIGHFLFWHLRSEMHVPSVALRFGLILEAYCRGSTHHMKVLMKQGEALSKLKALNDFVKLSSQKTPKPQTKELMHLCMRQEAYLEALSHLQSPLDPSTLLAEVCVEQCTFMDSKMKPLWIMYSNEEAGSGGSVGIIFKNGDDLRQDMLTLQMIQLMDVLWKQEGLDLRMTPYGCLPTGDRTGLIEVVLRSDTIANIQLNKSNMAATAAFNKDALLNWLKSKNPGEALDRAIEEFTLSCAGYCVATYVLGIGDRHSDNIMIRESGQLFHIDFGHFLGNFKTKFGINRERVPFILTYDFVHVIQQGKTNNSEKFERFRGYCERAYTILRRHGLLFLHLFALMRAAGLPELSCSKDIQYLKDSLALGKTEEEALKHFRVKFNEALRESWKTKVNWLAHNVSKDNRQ
# Method: as §1, §2
# PIK3Cα_h = target: T4, PIK3Cα_h (Homo sapiens, UniProt P42336); test: Enzyme binding assay (KINOMEscan), PIK3Cα; conditions: DiscoveRx
# T4 construct: purchased DiscoveRx Corporation
# Method: as §1, §2
# MTOR_h = target: T5, MTOR_h (Homo sapiens, UniProt P42345); test: Enzyme binding assay (KINOMEscan), MTOR; conditions: DiscoveRx
# T5 construct: purchased DiscoveRx Corporation
# Method: as §1, §2
# T1 sequence (P42338 whole entry): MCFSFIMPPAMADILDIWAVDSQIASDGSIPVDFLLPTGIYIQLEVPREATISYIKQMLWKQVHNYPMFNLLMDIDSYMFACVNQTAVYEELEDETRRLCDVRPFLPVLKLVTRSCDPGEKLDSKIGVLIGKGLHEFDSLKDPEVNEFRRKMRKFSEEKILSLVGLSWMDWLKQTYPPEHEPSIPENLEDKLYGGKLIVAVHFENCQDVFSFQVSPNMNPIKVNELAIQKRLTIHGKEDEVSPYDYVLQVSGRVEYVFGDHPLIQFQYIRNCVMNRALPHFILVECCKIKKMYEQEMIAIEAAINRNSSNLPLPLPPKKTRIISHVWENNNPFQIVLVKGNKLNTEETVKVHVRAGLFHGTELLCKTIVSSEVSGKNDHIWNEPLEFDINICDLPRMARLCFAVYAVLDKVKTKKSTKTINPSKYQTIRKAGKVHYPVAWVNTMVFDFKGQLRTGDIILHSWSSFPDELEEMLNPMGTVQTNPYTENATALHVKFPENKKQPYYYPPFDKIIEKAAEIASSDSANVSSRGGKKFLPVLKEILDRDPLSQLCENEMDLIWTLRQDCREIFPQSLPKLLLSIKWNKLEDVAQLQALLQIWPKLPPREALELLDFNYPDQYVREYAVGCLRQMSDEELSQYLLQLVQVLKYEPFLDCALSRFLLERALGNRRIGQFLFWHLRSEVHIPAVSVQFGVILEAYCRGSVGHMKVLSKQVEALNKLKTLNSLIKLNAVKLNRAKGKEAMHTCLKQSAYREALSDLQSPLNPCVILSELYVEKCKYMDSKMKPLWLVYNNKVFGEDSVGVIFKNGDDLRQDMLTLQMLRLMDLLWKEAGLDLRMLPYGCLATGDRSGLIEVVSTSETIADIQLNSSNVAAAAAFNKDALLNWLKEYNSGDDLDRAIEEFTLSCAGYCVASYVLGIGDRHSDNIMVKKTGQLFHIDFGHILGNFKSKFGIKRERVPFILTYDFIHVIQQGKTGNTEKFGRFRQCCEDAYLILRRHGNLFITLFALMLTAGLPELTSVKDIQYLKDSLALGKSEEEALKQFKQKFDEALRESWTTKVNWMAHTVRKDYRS
# T2 sequence (P48736 whole entry): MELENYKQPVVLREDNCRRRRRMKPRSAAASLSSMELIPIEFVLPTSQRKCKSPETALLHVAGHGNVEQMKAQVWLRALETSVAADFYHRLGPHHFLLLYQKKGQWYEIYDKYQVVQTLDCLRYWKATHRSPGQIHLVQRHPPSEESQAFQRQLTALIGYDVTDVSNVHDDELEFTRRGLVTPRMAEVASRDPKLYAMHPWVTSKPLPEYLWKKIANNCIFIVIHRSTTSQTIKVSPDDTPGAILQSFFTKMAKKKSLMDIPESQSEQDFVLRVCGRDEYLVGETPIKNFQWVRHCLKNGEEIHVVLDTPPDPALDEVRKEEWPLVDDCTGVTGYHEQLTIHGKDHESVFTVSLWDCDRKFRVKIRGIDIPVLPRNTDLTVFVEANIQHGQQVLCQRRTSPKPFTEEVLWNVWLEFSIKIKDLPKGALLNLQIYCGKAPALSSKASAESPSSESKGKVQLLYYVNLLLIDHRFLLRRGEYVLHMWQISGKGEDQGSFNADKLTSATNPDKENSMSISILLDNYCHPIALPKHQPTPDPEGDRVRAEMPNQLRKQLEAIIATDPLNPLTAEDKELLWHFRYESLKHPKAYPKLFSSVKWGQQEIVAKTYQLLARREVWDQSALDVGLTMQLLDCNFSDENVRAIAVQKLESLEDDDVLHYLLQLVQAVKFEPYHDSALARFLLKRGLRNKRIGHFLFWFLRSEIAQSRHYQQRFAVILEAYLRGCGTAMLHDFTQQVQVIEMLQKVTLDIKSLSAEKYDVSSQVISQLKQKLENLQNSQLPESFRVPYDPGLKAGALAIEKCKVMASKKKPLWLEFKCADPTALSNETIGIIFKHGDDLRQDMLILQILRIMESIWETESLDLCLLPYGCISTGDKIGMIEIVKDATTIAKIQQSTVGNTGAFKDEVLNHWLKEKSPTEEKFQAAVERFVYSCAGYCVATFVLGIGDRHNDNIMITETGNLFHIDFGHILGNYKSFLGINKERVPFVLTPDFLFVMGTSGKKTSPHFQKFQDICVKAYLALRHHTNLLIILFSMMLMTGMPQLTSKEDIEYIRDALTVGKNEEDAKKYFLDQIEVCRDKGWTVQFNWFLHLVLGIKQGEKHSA
# T4 sequence (P42336 whole entry): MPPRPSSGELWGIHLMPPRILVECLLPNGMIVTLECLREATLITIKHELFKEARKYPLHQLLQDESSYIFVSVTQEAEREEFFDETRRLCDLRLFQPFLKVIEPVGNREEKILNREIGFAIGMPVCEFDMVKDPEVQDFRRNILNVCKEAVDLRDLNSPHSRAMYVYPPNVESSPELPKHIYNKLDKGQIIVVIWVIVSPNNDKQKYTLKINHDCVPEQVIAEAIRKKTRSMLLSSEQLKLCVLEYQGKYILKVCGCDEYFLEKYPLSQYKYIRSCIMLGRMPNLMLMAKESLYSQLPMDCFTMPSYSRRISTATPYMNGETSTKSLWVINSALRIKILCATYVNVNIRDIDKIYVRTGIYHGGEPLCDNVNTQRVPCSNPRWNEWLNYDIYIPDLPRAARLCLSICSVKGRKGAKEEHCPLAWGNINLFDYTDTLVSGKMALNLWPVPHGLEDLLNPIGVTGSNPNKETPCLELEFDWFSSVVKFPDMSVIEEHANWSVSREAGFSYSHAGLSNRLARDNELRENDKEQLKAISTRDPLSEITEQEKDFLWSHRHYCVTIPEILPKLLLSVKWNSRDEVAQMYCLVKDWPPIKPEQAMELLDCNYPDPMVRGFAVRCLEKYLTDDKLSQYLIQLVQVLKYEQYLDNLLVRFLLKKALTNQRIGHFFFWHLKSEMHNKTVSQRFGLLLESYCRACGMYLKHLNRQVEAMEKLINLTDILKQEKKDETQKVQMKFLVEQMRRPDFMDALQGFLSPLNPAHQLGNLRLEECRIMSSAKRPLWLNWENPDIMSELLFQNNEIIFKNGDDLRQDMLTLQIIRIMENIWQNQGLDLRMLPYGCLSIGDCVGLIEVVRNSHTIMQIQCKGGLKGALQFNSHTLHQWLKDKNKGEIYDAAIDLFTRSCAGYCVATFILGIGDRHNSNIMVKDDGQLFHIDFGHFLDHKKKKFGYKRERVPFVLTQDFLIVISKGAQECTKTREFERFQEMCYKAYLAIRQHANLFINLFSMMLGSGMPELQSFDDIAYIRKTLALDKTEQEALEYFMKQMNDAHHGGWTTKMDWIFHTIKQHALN
Kd (PIK3Cβ_h),IC50 [1],Kd (PIK3Cγ_h),melting point,IC50 [2],Kd (PIK3Cδ_h),Kd (PIK3Cα_h),Kd (MTOR_h),SMILES
22 nM,> 513 nM,26900 nM,100 °C,417 nM,832 nM,5370 nM,> 30200 nM,Cc1cc(C)nc(N2CCCC2c2cc(C(=O)N(C)C)cc3ncc(N4CCOCC4)nc23)n1 (stereo not drawn) [Compound 5]
589 nM,> 513 nM,> 30200 nM,80 °C,> 513 nM,8320 nM,> 30200 nM,> 30200 nM,COc1ncc(NC(C)c2cc(C(=O)N(C)C)cc3ncc(N4CCOCC4)nc23)cc1C(F)(F)F (stereo not drawn) [Compound 24]
21 nM,> 513 nM,28800 nM,225 °C,468 nM,1320 nM,16200 nM,> 30200 nM,CC(Nc1cncc(Cl)n1)c1cc(C(=O)N(C)C)cc2ncc(N3CCOCC3)nc12 (stereo not drawn) [Compound 25]
15 nM,> 513 nM,> 30200 nM,80 °C,191 nM,661 nM,5010 nM,> 30200 nM,COc1ncc(F)cc1NC(C)c1cc(C(=O)N(C)C)cc2ncc(N3CCOCC3)nc12 (stereo not drawn) [Compound 26]
1260 nM,> 513 nM,25700 nM,244 °C,> 513 nM,15500 nM,16200 nM,30900 nM,Cc1ccncc1CNc1cc(C(=O)NCCO)cc2ncc(N3CCOCC3)nc12 [Compound 28]
0.1 nM,5 nM,3390 nM,206 °C,4 nM,295 nM,1700 nM,> 30200 nM,CN(C)CCNC(=O)c1cc(C2CCCN2c2cncc(F)c2)c2nc(N3CCOCC3)cnc2c1 (stereo not drawn) [Compound 36]
3 nM,~2 nM,1000 nM,191 °C,40 nM,166 nM,447 nM,11500 nM,O=C(NCCO)c1cc(C2CCCN2c2cncc(F)c2)c2nc(N3CCOCC3)cnc2c1 (stereo not drawn) [Compound 43]
2 nM,49 nM,4070 nM,130 °C,30 nM,240 nM,575 nM,31600 nM,O=C(c1cc(C2CCCN2c2cncc(F)c2)c2nc(N3CCOCC3)cnc2c1)N1CC2(C1)CS(=O)(=O)C2 (stereo not drawn) [Compound 44]
2 nM,> 513 nM,18200 nM,80 °C,> 513 nM,372 nM,10000 nM,> 30200 nM,CNCCNC(=O)c1cc(C2CCCN2c2ccnc(Cl)c2)c2nc(N3CCOCC3)cnc2c1 (stereo not drawn) [Compound 48]
